In patent publication US8415505B2, “2-methylene-5-substituted-methylenecyclopentanone derivatives and use thereof” (Shenyang Pharmaceutical University, priority 2008, dated 2013):
Like-named read-outs stand apart in the source and are kept apart here.

What was measured:
[1] = test system: Human breast cancer cells MDA-MB231; assay: In vitro antitumor activity test (MTT), MDA-MB231; type: cell-based; conditions: 4 days culture with drug, growth inhibition, read-out: IC50 (μmol/L) MDA-MB231
Procedure: (§1) In Vitro Antitumor Activity Test
(§2) Cells were taken out carefully from liquid nitrogen (Frozen pipes), and the cell freezing medium was thawed rapidly in water bath at 37° C. in order to rapidly pass the temperature range of 0˜5° C. within which the cell is easily damaged. Cell suspension was sucked with pipette gun and put it into centrifuge tubes under a sterile condition, then centrifuged for 3 min at 1300 r/min. The supernatant was gently discarded, and then added with a fresh medium to pipette and mix the cells. Finally, the cells were transferred into culture flasks and cultured in a carbon dioxide incubator. The medium was changed once after 24 h.
(§3) Human prostate cancer cells (DU145, PC-3) were cultured in RPMI1640 medium containing 10% fetal bovine serum inactivated by heating, 100 IU/mL penicillin, 100 μg/mL streptomycin and 1 mmol/L L-glutamine. Human breast cancer cells (T47D, MDA-MB231) were cultured in RPMI1640 medium containing 10% fetal bovine serum inactivated by heating, 5 μg/mL insulin, 100 IU/mL penicillin, 100 μg/mL streptomycin, and 1 mmol/L L-glutamine. Human breast cancer cells (MCF-7) were cultured in DMEM culture medium containing 10% fetal bovine serum inactivated by heating, 5 μg/mL insulin, 100 IU/mL penicillin, 100 μg/mL streptomycin and […] L-glutamine. Mouse Lewis lung carcinoma cells (LL/2) and mouse melanoma cells (B16F0) were cultured in DMEM culture medium containing 10% fetal bovine serum inactivated by heating, 4.5 g/L glucose, 1.5 g/L NaHCO3, 100 IU/mL penicillin, 100 μg/mL streptomycin and 4 mmol/L L-glutamine. All of the above cell lines were incubated in 37° C. incubator with 5% carbon dioxide saturated humidity
(§4) After 2-3 cycles of cell culture and passage after the cell thawing, the cells were stable and ready for the experiment. The flask bottom should be covered with cells in each cell passage.
(§5) Trypsin solution (0.25%) was applied to digest the cells off the flask bottom when the flask bottom was covered with cells. The digested cell solution was moved to the centrifuge tubes and culture medium was added to stop the digestion; centrifuged for 3 min at 1300 r/min conditions; gently discarded the supernatant, and then added 5 mL medium, pipetted and mixed the cells; added 10 μL of the cell suspension to the cell count plate to count; adjusted the cell concentration to 2×10^4/mL; added 100 μL cell suspension to all wells of the 96 well plate except A1 well which acts as a blank; and placed the 96 well plate in an incubator to culture 24 h and to make sure the cells growing and attached on the wells.
(§6) First formulated the medicine in 16 mmol/L of DMSO storage solution; then diluted the solution with ethanol to 1.6 mmol/L solution; then further diluted with cell culture medium to 32 μmol/L, 16 μmol/L, 8 μmol/L, 4 μmol/L, 2 μmol/L and 1 μmol/L, and added to 96 well plate; 100 μl drug solution were added to each well, thus the final drug concentrations of cells were 16 μmol/L, 8 μmol/L, 4 μmol/L, 2 μmol/L, 1 μmol/L, and 0.5 μmol/L; 3 parallel wells were set for each concentration and placed the 96 well plate was placed into an incubator to continuously culture for 4 days
(§7) Added to each well of the 96 well plate with 50 μL of MTT (2 mg/mL); discarded the MTT (tetrazolium) solution after 4 h incubation in an incubator, then added 200 μL of DMSO; shaking the 96 well plate in a magnetic shaker for 10 min to make sure that the reaction product of the living cells and the MTT, i.e. formazan, was fully dissolved; measured the absorbance value (OD) in microplate reader at the selected 570 nm wavelength, and recorded results. Using the OD values of the cells that were not added with drugs as control, the cell growth inhibition ratio at each test concentration was calculated by using the following formula. Herein, the cancer cell growth inhibition is expressed as the half of the growth inhibitory concentration (IG50 Value) (i.e., the tested drug concentration resulting in 50% cell growth inhibition). […]

[2] = test system: Human breast cancer cells T47D; assay: In vitro antitumor activity test (MTT), T47D; type: cell-based; conditions: 4 days culture with drug, growth inhibition, read-out: IC50 (μmol/L) T47D
Procedure: as §1, §2, §3, §4, §5, §6, §7

[3] = test system: Human prostate cancer cells PC-3; assay: In vitro antitumor activity test (MTT), PC-3; type: cell-based; conditions: 96 h, PC-3 cells, 4 days culture with drug, growth inhibition, read-out: IC50 (μmol/L) PC-3
Procedure: as §1
as §2, with “h. […]” for “h.”
(§8) After 2-3 cycles of cell culture and passage after the cell thawing, the cells were stable and ready for the experiment. […]
(§9) Added to each well of the 96 well plate with 50 μL of MTT (2 mg/mL); discarded the MTT (tetrazolium) solution after 4 h incubation in an incubator, then added 200 μL of DMSO; shaking the 96 well plate in a magnetic shaker for 10 min to make sure that the reaction product of the living cells and the MTT, i.e. formazan, was fully dissolved; measured the absorbance value (OD) in microplate reader at the selected 570 nm wavelength, and recorded results. […]

[4] = test system: Human prostate cancer cells DU145; assay: In vitro antitumor activity test (MTT), DU145; type: cell-based; conditions: DU-145, 96 h, 4 days culture with drug, growth inhibition, read-out: IC50 (μmol/L) DU145
Procedure: as §1
as §2, with “h. […]” for “h.”
as §8, §9

Acute toxicity test = conditions: both sexes, mouse, in vivo, ip; Kunming mice, intraperitoneal injection, observed one week after administration, weighted regression method
Procedure: Animals: healthy Kunming mice, half male and half female, weighed 18-22 g. Animals were provided from Experimental Animal Center of Shenyang Pharmaceutical University. Certificate of Conformity: Real co-Zi Liao No. 033
Name of tested drugs: Example 13, Example 14
Drug preparation: Suspension formulated with 0.2% polysorbate 80 (Tween-80). Dosage to subject is expressed as mg/kg.
Route of administration: Intraperitoneal injection; injection volume was 0.1 ml/10 g, with one time multi-dose administration.
Test cycle and measurement: Observed one week after the administration; recorded toxic reactions in mice daily during observation, with the death of mice as the main indicator. Half lethal dose (LD50, mg/kg) of the administration of compound after a week can be obtained according to weighted regression method.

[5] = test system: Human breast cancer cells MCF-7; assay: In vitro antitumor activity test (MTT), MCF-7; type: cell-based; conditions: MCF7, 96 h, MCF-7 cells, 4 days culture with drug, growth inhibition, read-out: IC50 (μmol/L) MCF-7
Procedure: as §1
as §2, with “h. […]” for “h.”
as §8, §9

[6] = test system: mouse melanoma cells (B16F0); assay: In vitro antitumor activity test (MTT), B16F0; type: cell-based; conditions: B16F0, 96 h, B16FD cells (head), 4 days culture with drug, growth inhibition, read-out: IC50 (μmol/L) B16FD
Procedure: as §1
as §2, with “h. […]” for “h.”
as §8, §9

[7] = test system: Mouse Lewis lung carcinoma cells (LL/2); assay: In vitro antitumor activity test (MTT), LL/2; type: cell-based; conditions: 96 h, LL/2 cells, 4 days culture with drug, growth inhibition, read-out: IC50 (μmol/L) LL/2
Procedure: as §1
as §2, with “h. […]” for “h.”
as §8, §9

Row | SMILES | IC50 ([1]; Homo sapiens, MDA-MB-231, 96 h) [µmol/L] | IC50 ([2]; Homo sapiens, 96 h) [µmol/L] | also measured
1 | C=C1CCC(=Cc2ccc(OC)cc2)C1=O [Example 2, 2-methylene-5-(4-methoxybenzylidene)-cyclopentanone] | > 16 | > 16 | –
2 | C=C1CCC(=Cc2ccccc2OC)C1=O [Example 7, 2-methylene-5-(2-methoxybenzylidene)cyclopentanone] | 11.6 | 3.93 | –
3 | C=C1CCC(=Cc2ccc(OCC)cc2)C1=O [Example 8, 2-methylene-5-(4-ethoxybenzylidene)cyclopentanone] | 4.57 | 6.37 | –
4 | C=C1CCC(=Cc2ccc(OCCC)cc2)C1=O [Example 9, 2-methylene-5-(4-propoxybenzylidene)cyclopentanone] | > 16 | > 16 | –
5 | C=C1CCC(=Cc2ccc(S(C)(=O)=O)cc2)C1=O [Example 10, 2-methylene-5-(4-methanesulfonylbenzylidene)cyclopentanone] | 4.96 | 1.64 | –
6 | C=C1CCC(=Cc2ccc(N(C)C)cc2)C1=O [Example 11, 2-methylene-5-(4-N,N-dimethylbenzylidene)cyclopentanone] | – | – | IC50 [1]: 8.58 µmol/L; IC50 [2]: 1.4 µmol/L
7 | C=C1CCC(=Cc2ccc(OC)cc2O)C1=O [Example 12, 2-methylene-5-(2-hydroxy-4-methoxybenzylidene)cyclopentanone] | 4.68 | 1.29 | –
8 | C=C1CCC(=Cc2ccc(OC)c(O)c2)C1=O [Example 13, 2-methylene-5-(3-hydroxy-4-methoxybenzylidene)cyclopentanone] | 2.53 | 0.64 | IC50 [3]: 2.01 µmol/L; IC50 [4]: 2.95 µmol/L; LD50 at 1 week (Acute toxicity test): 22.4 mg/kg; IC50 [5]: 1.21 µmol/L; IC50 [6]: 3.42 µmol/L; IC50 [7]: 5.09 µmol/L
9 | C=C1CCC(=Cc2ccc(O)c(OC)c2)C1=O [Example 14, 2-methylene-5-(4-hydroxy-3-methoxybenzylidene)cyclopentanone] | 3.21 | 0.98 | IC50 [3]: 1.76 µmol/L; IC50 [4]: 2.43 µmol/L; LD50 at 1 week (Acute toxicity test): 35.2 mg/kg; IC50 [5]: 1.05 µmol/L; IC50 [6]: 4.4 µmol/L; IC50 [7]: 6.39 µmol/L
10 | C=C1CCC(=Cc2cccc(OC)c2OC)C1=O [Example 15, 2-methylene-5-(2,3-dimethoxybenzylidene)cyclopentanone] | > 16 | > 16 | –
11 | C=C1CCC(=Cc2ccc(OC)cc2OC)C1=O [Example 16, 2-methylene-5-(2,4-dimethoxybenzylidene)cyclopentanone] | 7.51 | > 16 | –
12 | C=C1CCC(=Cc2ccc(OC)c(OC)c2)C1=O [Example 17, 2-methylene-5-(3,4-dimethoxybenzylidene)cyclopentanone] | 2.57 | 2.66 | –
13 | C=C1CCC(=Cc2ccc3c(c2)OCO3)C1=O [Example 18, 2-methylene-5-(3,4-methylenedioxybenzylidene)cyclopentanone] | 6.68 | 4.89 | –
14 | C=C1CCC(=Cc2cc(OC)c(O)c(OC)c2)C1=O [Example 19, 2-methylene-5-(3,5-dimethoxy-4-hydroxybenzylidene) cyclopentanone] | 3.44 | 2.82 | –
15 | C=C1CCC(=Cc2cc(C(C)(C)C)c(O)c(C(C)(C)C)c2)C1=O [Example 20, 2-methylene-5-[3,5-di(t-butyl)-4-hydroxybenzylidene]-cyclopentanone] | 14.8 | 5.31 | –
16 | C=C1CCC(=Cc2cc(OC)c(OC)c(OC)c2)C1=O [Example 21, 2-methylene-5-(3,4,5-trimethoxybenzylidene)cyclopentanone] | 7.84 | 2.76 | –
17 | C=C1CCC(=CCC(C)C)C1=O [Example 22, 2-methylene-5-(3-methylbutylidene)cyclopentanone] | > 16 | > 16 | –
18 | C=C1CCC(=Cc2ccc(O)cc2)C1=O [Example 23, 2-methylene-5-(4-hydroxybenzylidene)cyclopentanone] | 5.96 | > 16 | –
19 | C=C1CCC(=Cc2ccccc2O)C1=O [Example 24, 2-methylene-5-(2-hydroxybenzylidene)cyclopentanone] | 5.54 | 5.02 | –
20 | C=C1CCC(=C(c2ccccc2)c2ccccc2)C1=O [Example 25, 2-methylene-5-diphenylmethylenecyclopentanone] | > 16 | 7.23 | –
21 | C=C1CCC(=C(c2ccc(C)cc2)c2ccc(C)cc2)C1=O [Example 26, 2-methylene-5-[bis(4-methylphenyl)-methylene]cyclopentanone] | 7.49 | 4.36 | –
22 | C=C1CCC(=C(c2ccc(F)cc2)c2ccc(F)cc2)C1=O [Example 27, 2-methene-5-[bis(4-fluorophenyl)-methylene]cyclopentanone] | – | – | IC50 [1]: > 16 µmol/L
